Entries after “also recorded” stand apart in the source; their conditions may differ.
Tests used:
[1] = test system: c-MYC and MYB expression in MM1.S cells; test: Biomarker analysis in MM1.S cells (RT-PCR, Western blot); format: cell-based
Protocol: MM1.S cells (1,000,000 cells) were seeded in […] in 10 mL medium. On the following day cells were treated with indicated compounds for 0, 2, 4, 6, 8, 16, and 24 hours. Cells were collected, washed in PBS, and split for western blot and RNA analysis. For western blot, cells were lysed in RIPA buffer and 30 ug protein was loaded on a 4-12% bis-tris gel under denaturing conditions and transferred to nitrocellulose. Blots were probed with primary antibodies for c-MYC (Cell Signaling #9402) and GAPDH (Cell Signaling #2118) diluted at 1:1000 and then secondary antibodies anti-mouse 680 (LiCor) and anti-rabbit 800 (Licor) and imaged on a LiCor reader. For gene expression analysis, total RNA was prepared using Qiagen total RNA kit (Qiagen) and cDNA was prepared from 100 ng RNA (high capacity cDNA kit; Applied Biosystems). Relative gene expression was analyzed on an Applied Biosystem 7900 qPCR thermocycler using gene expression assays for MYC (Hs00153408_m1), MYB (Hs00920556_m1), and GAPDH (Hs02758991_g1). Relative gene expression is calculated relative to DMSO and normalized to GAPDH expression.

BRD4 BD1 = molecular target: T1, BRD4 BD1 (Homo sapiens, UniProt O60885); test: BRD4 BD1 Fluorescence Polarization (FP) competition binding assay; conditions: BRD4 BD1 40 nM, probe PFI-411FP 2 nM
T1 construct: His-tagged BRD4 BD1 (44-160); made in house
How it was run: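 BRD4 BD1 (40 nM) preincubated 15 min at 20° C. with compound (120 to 0.0012 μM) in HEPES pH 7.4 with 0.08% BSA, then 2 nM PFI-411FP tracer added for 60 min. Fluorescence polarization read (ex 620/em 688 nm); IC50 from four-parameter fit, converted to Ki via Nikolovska-Coleska equation.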

MM1.S cells = test: MM1.S cell proliferation assay (CellTiter-Glo); format: cell-based
Protocol: MM1.S (dexamethasone sensitive) and OPM-2 cells were purchased from ATCC and maintained in RPMI-1640 medium with 10% fetal bovine serum at 37 degrees, 5% CO2. Cells were seeded at 10,000 cells/well in 100 uL medium. The following day compounds or control vehicle (DMSO) were added at indicated concentrations in 10 ul volume. Compound treated OPM-2 cells and MM1.S cell were analyzed for cell density at 72h and 96h, respectively, using CellTiter-Glo® (CTG) reagent (Promega). The CTG assay measures the amount of ATP present, which indicates the number of viable cells in culture.

[2] = 0.5 uM, RT-PCR time-course 2 to 24 hours

IC50 (BRD4 BD1): 62.2 nM | IC50 (MM1.S cells; Homo sapiens, MM1.S, CTG at 96h): 2 nM
SMILES: CCC(=O)N(C)c1ccc2nc(NCCC(=O)O)c(=O)n([C@@H](CC)c3ccccc3)c2n1 [Example 10, N-{6-[methyl(propanoyl)amino]-3-oxo-4-[(1S)-1-phenylpropyl]-3,4-dihydropyrido[2,3-b]pyrazin-2-yl}-beta-alanine]
expression of c-MYC mRNA relative to GAPDH [1, 2]: strongly down-regulated; also recorded: down-regulated | relative expression of MYB mRNA [1, 2]: down-regulated | relative expression of c-MYC protein ([1]; Western blot, 2, 4, 6, 8, 16 and 24 hours): down-regulated | inhibition of proliferation of MM1.S cells (MM1.S cells; dose dependent manner, FIG. 1.A): inhibited proliferation
